According to publication PMC11979273, “A phase I study to evaluate the safety, tolerability, and pharmacokinetics of HEC113995PA·H2O, a novel dual-acting serotonergic antidepressant, in healthy subjects” (Frontiers in Pharmacology, 2025):
Like-named read-outs stand apart in the source and are kept apart here.

Assay: Multiple ascending-dose (MAD) study, plasma pharmacokinetics
Type: in vivo, human
Conditions: for Cl/F / CLss/F / Css_max / Rac (AUC), accumulation ratio at steady state / Rac_Cmax, accumulation ratio at steady state / AUC(0-t) / Vd/F / Cmax / MRT inf / AUC / AUC(0-inf) / half-life / concentration at 10 day: mean (SD); for AUC(0-t) / Vd/F / Tmax / Tmax at 10 days / Cmax / MRT inf / AUC / AUC(0-inf) / half-life / concentration at 10 day: both sexes, human, plasma, oral; for MRT inf: read-out: MRT0-∞; for concentration at 10 day: read-out: Css_min
Description: Three drug doses (10, 20 and 40 mg) were utilized. A total of 36 healthy subjects of both genders were assigned randomly to the three groups (n = 12), with10 subjects taking HEC113995PA·H2O tablets and 2 taking placebo. The participants in the 10 mg dose group received a single dose daily in the morning after overnight fasting, or a single dose daily after a standard meal in the 20 mg and 40 mg dose groups for 10 consecutive days. Serial blood samples were collected within 0.5 h before drug administration on days 7, 8 and 9, and before and after drug administration on days 1 and 10 to determine plasma concentration and pharmacokinetic characteristics. Safety and tolerability were evaluated on days 4, 8, 13 and 15.
In the first dose group of single ascending-dose study, PK blood samples were collected at 0.5 h before administration and 0.5, 1, 1.5, 2, 2.5, 3, 4, 5, 6, 8, 10, 12, 24, 36, 48, and 72 h after administration. In other SAD groups, MAD groups and food effect study, PK blood samples were collected at 0.5 h before administration, and 1, 2, 3, 4, 5, 6, 7, 8, 10, 12, 24, 48, 72, 96, 120 and 144 h after administration. Approximately 4 mL of venous blood was obtained from each collection and placed in a vacuum collection vessel containing K2EDTA anticoagulant. The blood was centrifuged and packed according to the instruction provided by the Biological Sample Detection and Analysis Unit. Briefly, all samples were centrifuged at 4°C, 1,500 g for 10 min within 0.5 h after blood collection. After centrifugation, the plasma was aliquoted into two cryogenic storage tubes. The first tube (Tube A) contained at least 0.8 mL of plasma for analytical testing, and the remaining plasma is allocated into the backup tube (Tube B). The plasma samples were stored at −80°C within 1 h after aliquoting for further analysis.
The concentration of HEC113995PA·H2O in human plasma samples (K2EDTA) was quantitatively analyzed using the LC-MS/MS method. Plasma samples (50 μL) were processed using protein precipitation with 5 μL deuterated internal standard (HEC124659) and 100 μL acetonitrile. The Shimadzu LCMS-8060 system coupled with a GL Sciences Inc. InertSustain AQ-C18 HP column (50 × 2.1 mm, 3 μm) achieved chromatographic separation through gradient elution using 0.04% TFA aqueous solution (pH 2.1) and acetonitrile at 0.4 mL/min. ESI-positive mode detection employed optimized parameters: 300°C interface temperature, 250°C DL temperature, 3 L/min nebulizer gas, and 400°C heating block temperature.
Using WinNonlin 7.0 for non-compartmental analysis (NCA), pharmacokinetic (PK) parameters were meticulously calculated based on the actual sampling times for plasma, urine, and fecal samples from each subject post-administration. These parameters encompassed a comprehensive range, including the area under the concentration–time curve (AUC), AUC from time zero (pre-dose) to the time of the last measurable concentration (AUC0-t), and AUC from time zero (pre-dose) to infinity (AUC0-∞). Additionally, maximum observed plasma concentration (Cmax), time to achieve maximum plasma concentration (Tmax), terminal elimination half-life (t1/2), elimination rate constant (Ke), apparent volume of distribution (Vd/F), clearance rate (CL/F), and mean residence time (MRT) were also determined. The AUC0-t and AUC0-∞ values were computed using the linear trapezoidal rule method. Tmax and Cmax were ascertained based on the actual observed data. In the context of the multiple ascending-dose study, both the degree of fluctuation (DF) and the accumulation ratio at steady state (Rac) were thoroughly analyzed.

[1] = MAD 10 mg (N = 10), D1, fasting
[2] = MAD 20 mg (N = 9), D1, after standard meal
[3] = MAD 20 mg (N = 9), D10, QD after standard meal
[4] = MAD 40 mg (N = 10), D1, after standard meal
[5] = MAD 40 mg (N = 10), D10, QD after standard meal

Cc1nc(-c2cnc(N3CCN(CCCc4c[nH]c5ccc(C#N)cc45)CC3)nc2)sc1C(N)=O [HEC113995PA·H2O]
gender difference in systemic exposure (10 mg on an empty stomach, low sample size): no significant gender difference | accumulation ratio (40 mg dose as printed in discussion): 2.4 fold | continuous administration until PK steady state (10 to 40 mg daily): 7 days | accumulation ratios (Rac), range (10–40 mg range, discussion): 1.83–2.41 | gender difference in systemic exposure (20 and 40 mg following a standard meal, single and multiple administrations): no apparent gender difference | Cl/F [1]: 9.4 L/h | Cl/F [2]: 8.1 L/h | CLss/F [3]: 7.27 (0.97) L/h | Css_max [3]: 202.6 (39.27) ng/mL | Rac (AUC), accumulation ratio at steady state [3]: 1.83 (0.16) | Rac_Cmax, accumulation ratio at steady state [3]: 1.96 (0.28) | Cl/F [4]: 8.8 L/h | CLss/F [5]: 7.25 (1.4) L/h | Css_max [5]: 435.6 (87.5) ng/mL | Rac (AUC), accumulation ratio at steady state [5]: 1.96 (0.35) | Rac_Cmax, accumulation ratio at steady state [5]: 2.1 (0.4) | accumulation ratio Rac_Cmax, arithmetic mean range (after multiple administrations, 10, 20, 40 mg groups): 1.9546–2.4058 | AUC(0-t) (10 mg, MAD 10 mg (N = 10), D1, fasting, read-out: AUC0-t): 483 ng·h/mL | AUC(0-t) (10 mg, MAD 10 mg (N = 10), D1, fasting, read-out: AUC0–24h): 486 ng·h/mL | Vd/F (10 mg, MAD 10 mg (N = 10), D1, fasting, read-out: Vz/F): 350 L | Tmax (10 mg, MAD 10 mg (N = 10), D1, fasting, median (min, max), read-out: Tmax): 5.5 h | Vd/F (10 mg, MAD D10, 10 mg dose group, read-out: Vss/F): 521 L | Tmax at 10 days (10 mg, MAD D10, 10 mg dose group, median (min, max)): 4.5 h | AUC(0-t) (20 mg, MAD 20 mg (N = 9), D1, after standard meal, read-out: AUC0-t): 1520 ng·h/mL | AUC(0-t) (20 mg, MAD 20 mg (N = 9), D1, after standard meal, read-out: AUC0–24h): 1530 ng·h/mL | Vd/F (20 mg, MAD 20 mg (N = 9), D1, after standard meal, read-out: Vz/F): 189 L | Tmax (20 mg, MAD 20 mg (N = 9), D1, after standard meal, median (min, max), read-out: Tmax): 5 h | Vd/F (20 mg, MAD 20 mg (N = 9), D10, QD after standard meal, read-out: Vss/F): 402 L | Tmax at 10 days (20 mg, MAD 20 mg (N = 9), D10, QD after standard meal, median (min, max)): 2 h | AUC(0-t) (40 mg, MAD 40 mg (N = 10), D1, after standard meal, read-out: AUC0-t): 2920 ng·h/mL | AUC(0-t) (40 mg, MAD 40 mg (N = 10), D1, after standard meal, read-out: AUC0–24h): 2930 ng·h/mL | Vd/F (40 mg, MAD 40 mg (N = 10), D1, after standard meal, read-out: Vz/F): 192 L | Tmax (40 mg, MAD 40 mg (N = 10), D1, after standard meal, median (min, max), read-out: Tmax): 5 h | Vd/F (40 mg, MAD 40 mg (N = 10), D10, QD after standard meal, read-out: Vss/F): 321 L | Tmax at 10 days (40 mg, MAD 40 mg (N = 10), D10, QD after standard meal, median (min, max)): 2.5 h | Tmax (40 mg, following a single administration, 10, 20, 40 mg groups, read-out: median time to peak concentration (Tmax), range): 5 to 5.5 h | Cmax [1]: 30.6 ng/mL | MRT inf [1]: 40 h | Cmax [2]: 104 ng/mL | MRT inf [2]: 25.3 h | AUC [3]: 2790 ng·h/mL | AUC(0-inf) [3]: 5470 ng·h/mL | half-life [3]: 38.6 h | concentration at 10 day [3]: 66.8 ng/mL | Cmax [4]: 208 ng/mL | MRT inf [4]: 24.3 h | AUC [5]: 5730 ng·h/mL | AUC(0-inf) [5]: 10500 ng·h/mL | half-life [5]: 30.9 h | concentration at 10 day [5]: 132 ng/mL | half-life (MAD D10, 10 mg dose group): 39.1 h | concentration at 10 day (MAD D10, 10 mg dose group): 30 ng/mL | AUC(0-inf) (MAD D10, head prints 20 mg (N = 9)): 2490 ng·h/mL
